According to patent US10041042B2, “Methods for production and use of substance-loaded erythrocytes (S-IEs) for observation and treatment of microvascular hemodynamics” (Novadaq Technologies ULC, priority 2008, dated 2018):

Experiments:
Assay type in all cases: physicochemical
[1] = Near-infrared fluorescence micrographs (40×) of ICG-loaded vs ICG-stained erythrocytes: cell brightness; settings: FIG. 1C, plasma exposed 20 min to stained erythrocytes
Experimental: FIGS. 1A-1D are near-infrared fluorescence micrographs at 40× magnification of erythrocytes, comparing the brightness of cells “stained” with ICG (A—stained in 1 mM ICG solution for 30 min. and B—stained in 2 mM ICG solution for 60 min. to cells into which ICG has been loaded through pores in their membranes; C—stained plasma resulting from exposure for 20 min. to the stained erythrocytes from A; D—dialysed in 1 mM ICG solution for 30 min.);
(1) Although many fluorescent dyes, such as ICG dye, do bind to the erythrocyte outer cell membrane, binding is weak and non-covalent, and regardless of the dye concentration and conjugation time, the maximum fluorescence brightness that can be achieved is considerably less than optimum (see FIG. 1). […] (2) Exposure to fluorescence excitation energy for diagnostic purposes must not exceed the safe maximum permissible exposure level for the sensory retina. Since ICG dye is a fairly weak emitter of fluorescence, care must be taken to ensure that the amount of ICG present post-loading is optimal, resulting in maximum fluorescence intensity possible at a given safe excitation energy level. […] Moreover, since ICG is subject to concentration fluorescence quenching—even when inside erythrocytes—the amount of loaded dye must be controlled: too much or too little will not produce the maximum fluorescence. […]

[2] = Infrared fluorescence image of thick and thin layers of ICG with and without Ag colloid; settings: thick (1 cm) layers, 0.250 mg/mL ICG in HAS with or without 4.684 mg/mL Ag colloid, 805 nm
Experimental: FIG. 7 is an infrared fluorescence image comparing the fluorescence enhancement effect of silver colloid in 0.05 mg/mL ICG solutions; samples in the left-hand side contain no colloid, while those in the right-hand side contain colloid; samples at the top are in 1-cm thick tubes, while those at the bottom are 100 microns thick;
FIG. 8 is an infrared fluorescence image of the samples of FIG. 7 showing reflection of the 805-nm wavelength light used to stimulate fluorescence; no barrier filter was placed in front of the CCD camera in this case;
The disparity between fluorescence enhancement reported in the experiments made using glass surfaces on which the dye/colloid conjugates were bound with amino groups (30-fold) and those observed in the in vivo angiograms (2- to 3-fold) apparently was due to the fact that the colloid fluorescence-enhancement effect is manifest in very thin layers of the dye/suspension and suppressed in thick ones. In this figure, the thick samples are at the top, and the thin ones at the bottom; 0.250 mg/mL ICG in HAS is on the left, and 0.250 mg/mL ICG in HAS with 4.684 mg/mL Ag colloid on the right. The array of samples was uniformly illuminated with 805-nm wavelength light, and the ICG fluorescence image was captured. […]

[3] = Optimum ICG concentration for fluorescence (concentration quenching)
Source text: (1) Although many fluorescent dyes, such as ICG dye, do bind to the erythrocyte outer cell membrane, binding is weak and non-covalent, and regardless of the dye concentration and conjugation time, the maximum fluorescence brightness that can be achieved is considerably less than optimum (see FIG. 1). […] (2) Exposure to fluorescence excitation energy for diagnostic purposes must not exceed the safe maximum permissible exposure level for the sensory retina. Since ICG dye is a fairly weak emitter of fluorescence, care must be taken to ensure that the amount of ICG present post-loading is optimal, resulting in maximum fluorescence intensity possible at a given safe excitation energy level. […] Moreover, since ICG is subject to concentration fluorescence quenching—even when inside erythrocytes—the amount of loaded dye must be controlled: too much or too little will not produce the maximum fluorescence. […] Achieving optimal dye concentration is accomplished by controlling the amount of dye in the solution during dialysis once the pores in the cell membranes open; experimentation has determined the optimum amount to be approximately 1.0 μmol/mL dialysed cell-solution (see FIG. 2). […] This also has the advantage of preventing plasma dye-staining and the associated reduction of contrast between cell fluorescence and background brightness once the cells are re-injected. […]

**Q.** Which “affinity of ICG dye molecules: plasma proteins vs erythrocyte outer membrane” value [1] does the source give for `CC1(C)C(/C=C/C=C/C=C/C=C2\N(CCCCS(=O)(=O)O)c3ccc4ccccc4c3C2(C)C)=[N+](CCCCS(=O)(=O)[O-])c2ccc3ccccc3c21` [ICG, indocyanine green] here?
**A.** greater for plasma proteins than for the erythrocyte outer membrane

**Q.** What about the “fluorescence brightness, thick samples” value [2] of the same molecule?
**A.** significantly brighter

**Q.** What about the “optimum concentration of dye molecules in the loaded cells; above that level fluorescence quenching occurs” value ([3]; ICG inserted into S-IEs) of the same molecule?
**A.** about 0.03 mg/mL

**Q.** What about the “optimum amount of dye in the solution during dialysis” value ([3]; for maximum fluorescence of loaded erythrocytes) of the same molecule?
**A.** approximately 1.0 μmol/mL dialysed cell-solution
